Where two headings read alike, the source gives them in different places.
Tests used:
[1] = molecular target: VIM-2 (Escherichia coli, UniProt Q5U7L7); test: Enzymatic assay for determination of inhibition constants, reporter substrate method, purified VIM-2; type: biochemical;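 also: purified VIM-2 hydrolysing a reporter substrate (imipenem, meropenem, cefotaxime or nitrocefin), reaction rate read as absorbance change, HEPES 50 mM at pH 7.5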
[2] = molecular target: VIM-1 (Pseudomonas aeruginosa, UniProt A0A0F7KYQ8); test: Enzymatic assay for determination of inhibition constants, reporter substrate method, purified VIM-1; type: biochemical; settings: for Ki: isolated MBL, competitive inhibition model;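 as to all read-outs here: initial hydrolysis rates of a reporter β-lactam (imipenem, meropenem, cefotaxime or nitrocefin) followed by absorbance change, purified enzyme at 1–70 nM in 50 mM HEPES pH 7.5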
Protocol: (§1) The reaction rate was measured as the variation of absorbance observed upon substrate hydrolysis in a UV-Vis spectrophotometer or microplate reader at a wavelength of 300 nm (imipenem, meropenem), 260 nm (cefotaxime) or 482 nm (nitrocefin) in 50 mM HEPES buffer (pH 7.5) and in the presence of a purified MBL enzyme (such as VIM-1, VIM-2, VIM-4, NDM-1 and IMP-1, at a final concentration ranging 1-70 nM).
(§2) The inhibition constants (Ki) were determined on the basis of a model of competitive inhibition by analyzing the dependence of the ratio v0/vi (v0, hydrolysis velocity in the absence of inhibitor; vi, hydrolysis velocity in the presence of inhibitor) as a function of [I] as already described [Docquier J. D., Lamotte-Brasseur J., Galleni M., Amicosante G., Frère J. M., Rossolini G. M. (2003) J. Antimicrob. […] The slope of the plot of v0/vi vs [I], which corresponds to Km^S/(Km^S+[S])Ki (where Km^S is the Km value of the reporter substrate and [S] its concentration in the reaction mixture) and allowed the calculation of the Ki value. Alternatively, a Dixon plot analysis was carried out, by measuring the initial hydrolysis rates in the presence of variable concentrations of inhibitor and substrate.

[3] = molecular target: NDM-1 (Klebsiella pneumoniae, UniProt C7C422); test: Enzymatic assay for determination of inhibition constants, reporter substrate method, purified NDM-1; type: biochemical; settings: for Ki: isolated MBL, competitive inhibition model;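 as to all read-outs here: purified enzyme activity followed as absorbance change from reporter substrate hydrolysis on a UV-Vis spectrophotometer or plate reader, 50 mM HEPES pH 7.5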
Chain of NDM-1 (C7C422 29-270, looked up, species assumed): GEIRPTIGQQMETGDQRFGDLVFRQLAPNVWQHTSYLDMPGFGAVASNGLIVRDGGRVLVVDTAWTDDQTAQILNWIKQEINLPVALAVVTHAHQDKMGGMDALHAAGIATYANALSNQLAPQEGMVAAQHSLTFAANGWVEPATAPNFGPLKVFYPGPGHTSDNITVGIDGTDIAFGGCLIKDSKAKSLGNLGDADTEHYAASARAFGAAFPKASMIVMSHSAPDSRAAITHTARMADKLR

[4] = molecular target: IMP-1 (Serratia marcescens, UniProt P52699); test: Enzymatic assay for determination of inhibition constants, reporter substrate method, purified IMP-1; type: biochemical; settings: for Ki: isolated MBL, competitive inhibition model; for % inhibition IMP-1: at 200 μM (maximal tested concentration);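 as to all read-outs here: purified IMP-1 (1-70 nM) hydrolysing a reporter substrate, initial rates followed as absorbance change at 260, 300 or 482 nm in 50 mM HEPES pH 7.5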
Chain of IMP-1 (P52699 19-246, looked up, species assumed): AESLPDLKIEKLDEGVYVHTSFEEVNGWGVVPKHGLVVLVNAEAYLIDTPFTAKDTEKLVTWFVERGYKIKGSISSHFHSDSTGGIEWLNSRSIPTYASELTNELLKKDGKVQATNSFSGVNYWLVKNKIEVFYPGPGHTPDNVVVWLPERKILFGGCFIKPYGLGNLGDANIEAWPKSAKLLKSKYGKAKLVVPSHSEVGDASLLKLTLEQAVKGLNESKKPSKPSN
Protocol: as §1, §2

[5] = molecular target: VIM-4 (Pseudomonas aeruginosa, UniProt Q8KRJ3); test: Enzymatic assay for determination of inhibition constants, reporter substrate method, purified VIM-4; type: biochemical; settings: at 100 μM (maximal tested concentration);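 also: purified VIM-4 (1-70 nM) in 50 mM HEPES pH 7.5, reporter substrate hydrolysis rate tracked by absorbance change (nitrocefin 482 nm, imipenem or meropenem 300 nm, cefotaxime 260 nm)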
[6] = isolated MBL, competitive inhibition model, read-out: Ki VIM-2
[7] = at 200 μM (maximal tested concentration)
[8] = at 100 μM (maximal tested concentration)

SMILES	melting point	Ki [1, 6]	Ki [3]	Ki [4]	% inhibition VIM-4 [5]	other results
O=C(O)c1ccccc1CCn1c(-c2ccccc2)n[nH]c1=S [Compound 1, 2-[2-(3-phenyl-5-sulfanylidene-4,5-dihydro-1H-1,2,4-triazol-4-yl)ethyl]benzoic acid]	220 to 221 °C	< 1 µM	> 100 µM	> 100 µM		Ki ([1]; as listed in Table 2, read-out: Ki on VIM-2): < 1 µM; Ki [2]: > 100 µM
O=C(O)c1ccccc1CCn1c(-c2ccc3ccccc3c2)n[nH]c1=S [Compound 3, 2-{2-[3-(naphthalen-2-yl)-5-sulfanylidene-4,5-dihydro-1H-1,2,4-triazol-4-yl]ethyl}benzoic acid]	240 to 241 °C	< 1 µM		10 to 100 µM	75% at 100 μM	Ki [2]: > 100 µM; % inhibition NDM-1 [3, 7]: 60% at 200 μM
Cc1ccccc1-c1n[nH]c(=S)n1CCc1ccccc1 [Compound 6, 3-(2-methylphenyl)-4-(2-phenylethyl)-4,5-dihydro-1H-1,2,4-triazole-5-thione]			> 100 µM		50% at 100 μM	% inhibition VIM-2 [1, 7]: 60% at 200 μM; % inhibition VIM-1 [2, 7]: 60% at 200 μM; % inhibition IMP-1 [4]: 80% at 200 μM
S=c1[nH]nc(-c2ccccc2)n1CCc1ccccc1 [Compound 11, 3-phenyl-4-(2-phenylethyl)-4,5-dihydro-1H-1,2,4-triazole-5-thione]		> 100 µM	> 100 µM	1 to 10 µM	75% at 100 μM	% inhibition VIM-1 [2, 7]: 75% at 200 μM
O=C(O)c1ccccc1CNn1c(-c2ccc3ccccc3c2)n[nH]c1=S [Compound 16, 2-({[3-(naphthalen-2-yl)-5-sulfanylidene-4,5-dihydro-1H-1,2,4-triazol-4-yl]amino}methyl)benzoic acid]	213 to 214 °C	1 to 10 µM	> 100 µM	> 100 µM		Ki [2]: > 100 µM
O=C(O)CC1(Cn2c(-c3ccccc3)n[nH]c2=S)CCCCC1 [Compound 17, 2-{1-[(3-phenyl-5-sulfanylidene-4,5-dihydro-1H-1,2,4-triazol-4-yl)methyl]cyclohexyl}acetic acid]	80 to 81 °C	1 to 10 µM	> 100 µM	> 100 µM	60% at 100 μM	
COc1cccc(-c2n[nH]c(=S)n2CCc2ccccc2C(=O)O)c1 [Compound 22, 2-{2-[3-(3-methoxyphenyl)-5-sulfanylidene-4,5-dihydro-1H-1,2,4-triazol-4-yl]ethyl}benzoic acid]	197 to 198 °C	< 1 µM	> 100 µM	> 100 µM	80% at 100 μM	
Cc1nnsc1-c1n[nH]c(=S)n1CCc1ccccc1C(=O)O [Compound 23, 2-{2-[3-(4-methyl-1,2,3-thiadiazol-5-yl)-5-sulfanylidene-4,5-dihydro-1H-1,2,4-triazol-4-yl]ethyl}benzoic acid]	195 to 196 °C	> 100 µM	> 100 µM			% inhibition IMP-1 [4]: 95% at 200 μM
COc1cccc(-c2n[nH]c(=S)n2CCCC(=O)O)c1 [Compound 24, 4-[3-(3-methoxyphenyl)-5-sulfanylidene-4,5-dihydro-1H-1,2,4-triazol-4-yl]butanoic acid]	159 to 160 °C		> 100 µM	> 100 µM	85% at 100 μM	% inhibition VIM-2 [1, 7]: 70% at 200 μM
CC(C)(C)OC(=O)NC(CCCn1c(-c2ccccc2)n[nH]c1=S)C(=O)O (stereo not shown) [Compound 25, 2-{[(tert-butoxy)carbonyl]amino}-5-(3-phenyl-5-sulfanylidene-4,5-dihydro-1H-1,2,4-triazol-4-yl)pentanoic acid]	105 to 106 °C	1 to 10 µM	> 100 µM	> 100 µM	85% at 100 μM	
CCCCCCn1c(-c2ccccc2)n[nH]c1=S [Compound 26, 4-hexyl-3-phenyl-4,5-dihydro-1H-1,2,4-triazole-5-thione]	98 to 99 °C	1 to 10 µM	> 100 µM	> 100 µM	85% at 100 μM	
O=C(O)c1ccccc1CCn1c(-c2ccc(Cl)s2)n[nH]c1=S [Compound 27, 2-{2-[3-(5-chlorothiophen-2-yl)-5-sulfanylidene-4,5-dihydro-1H-1,2,4-triazol-4-yl]ethyl}benzoic acid]	240 to 241 °C	1 to 10 µM	> 100 µM	> 100 µM	85% at 100 μM	
FC(F)(F)c1cc(SCCn2c(-c3ccccc3)n[nH]c2=S)c2ccccc2n1 [Compound 28, 3-phenyl-4-(2-{[2-(trifluoromethyl)quinolin-4-yl]sulfanyl}ethyl)-4,5-dihydro-1H-1,2,4-triazole-5-thione]	184 to 185 °C	> 100 µM	10 to 100 µM	> 100 µM		
COc1ccc(O)c(-c2n[nH]c(=S)n2CCCCC(=O)O)c1 [Compound 29, 5-[3-(2-hydroxy-5-methoxyphenyl)-5-sulfanylidene-4,5-dihydro-1H-1,2,4-triazol-4-yl]pentanoic acid]	155 to 156 °C		> 100 µM	> 100 µM	90% at 100 μM	% inhibition VIM-2 [1, 7]: 60% at 200 μM
O=C(O)CCCCn1c(-c2ccc3ccccc3c2)n[nH]c1=S [Compound 30, 5-[3-(naphthalen-2-yl)-5-sulfanylidene-4,5-dihydro-1H-1,2,4-triazol-4-yl]pentanoic acid]	170 to 171 °C	1 to 10 µM	> 100 µM		80% at 100 μM	% inhibition IMP-1 [4]: 60% at 200 μM
Oc1ccc(CCn2c(-c3ccccc3)n[nH]c2=S)cc1 [Compound 31, 4-[2-(4-hydroxyphenyl)ethyl]-3-phenyl-4,5-dihydro-1H-1,2,4-triazole-5-thione]		1 to 10 µM	10 to 100 µM	10 to 100 µM	70% at 100 μM	Ki [2]: 1 to 10 µM
CCCCn1c(-c2ccccc2)n[nH]c1=S [Compound 32, 4-butyl-3-phenyl-4,5-dihydro-1H-1,2,4-triazole-5-thione]	128 to 129 °C	1 to 10 µM	> 100 µM	10 to 100 µM	75% at 100 μM	
O=C(O)C1CCC(Cn2c(-c3ccccc3)n[nH]c2=S)CC1 (stereo not shown) [Compound 34, 4-[(3-phenyl-5-sulfanylidene-4,5-dihydro-1H-1,2,4-triazol-4-yl)methyl]cyclohexane-1-carboxylic acid]	207 to 208 °C		> 100 µM	> 100 µM	90% at 100 μM	% inhibition VIM-2 [1, 7]: 75% at 200 μM
O=C(O)c1ccccc1CCn1c(C23CC4CC(CC(C4)C2)C3)n[nH]c1=S [Compound 35, 2-{2-[3-(adamantan-1-yl)-5-sulfanylidene-4,5-dihydro-1H-1,2,4-triazol-4-yl]ethyl}benzoic acid]	> 250 °C	1 to 10 µM	> 100 µM	> 100 µM	55% at 100 μM	
O=C(O)CCCCCn1c(-c2ccccc2)n[nH]c1=S [Compound 45, 6-(3-Phenyl-5-sulfanylidene-4,5-dihydro-1H-1,2,4-triazol-4-yl)hexanoic acid]	136 to 137 °C	< 1 µM		> 100 µM	85% at 100 μM	% inhibition NDM-1 [3, 8]: 55% at 100 μM
O=C(O)C1CCCC(n2c(-c3ccccc3)n[nH]c2=S)C1 (stereo not shown) [Compound 47, 3-(3-Phenyl-5-sulfanylidene-4,5-dihydro-1H-1,2,4-triazol-4-yl)cyclohexane-1-carboxylic acid]	234 to 235 °C		> 100 µM	> 100 µM	70% at 100 μM	% inhibition VIM-2 [1, 8]: 60% at 100 μM
[N-]=[N+]=NCCn1c(-c2ccccc2)n[nH]c1=S [Compound 49, 4-(2-Azidoethyl)-3-phenyl-4,5-dihydro-1H-1,2,4-triazole-5-thione]	108 to 109 °C	> 100 µM	> 100 µM			% inhibition IMP-1 [4]: 90% at 200 μM
O=C(O)CCCn1c(-c2ccc3ccccc3n2)n[nH]c1=S [Compound 50, 4-[3-(Quinolin-2-yl)-5-sulfanylidene-4,5-dihydro-1H-1,2,4-triazol-4-yl]butanoic acid]	238 to 239 °C			> 100 µM	85% at 100 μM	% inhibition VIM-2 [1, 7]: 80% at 200 μM; % inhibition NDM-1 [3, 7]: 50% at 200 μM
O=C(O)c1ccc(Cn2c(-c3ccccc3)n[nH]c2=S)cc1 [Compound 55, p-[(3-Phenyl-5-thioxo-1,4-dihydro-1,2,4-triazol-4-yl)methyl]benzoic acid]			> 100 µM	> 100 µM	80% at 100 μM	% inhibition VIM-2 [1, 7]: 80% at 200 μM
O=C(O)c1ccccc1CCn1c(-c2ccc[nH]2)n[nH]c1=S [Compound 57, o-{2-[3-(1H-Pyrrol-2-yl)-5-thioxo-1,4-dihydro-1,2,4-triazol-4-yl]ethyl}benzoic acid]				> 100 µM	65% at 100 μM	% inhibition VIM-2 [1, 7]: 80% at 200 μM; % inhibition NDM-1 [3, 7]: 60% at 200 μM
S=c1[nH]nc(-c2ccccc2)n1CCCSc1ccccc1 [Compound 79, 5-Phenyl-4-[3-(phenylthio)propyl]-2,4-dihydro-1,2,4-triazole-3-thione]			> 100 µM	> 100 µM	71% at 100 μM	% inhibition VIM-2 [1, 8]: 72% at 100 μM; % inhibition VIM-1 [2, 8]: 82% at 100 μM

From patent publication US20220000841A1, “INHIBITORS OF METALLO-BETA-LACTAMASES” (CENTRE NATIONAL DE LA RECHERCHE SCIENTIFIQUE, priority 2018, published 2022)
